Results: patent US11000033B2, “Ketone or oxime compound, and herbicide” (NISSAN CHEMICAL CORPORATION, priority 2014, dated 2021)

Columns and labels:
Format in all cases: in vivo
Monochoria vaginalis = test: Test Example 1: herbicidal activity, application before weed generation in submerged conditions (symbol C); conditions: application herbicide amount 320 g/ha
Summary of the method: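 Pre-emergence, paddy conditions: emulsifiable formulation diluted in water, dosed onto floodwater (4 cm depth) on sowing day. Alluvial soil; weeds sown mixed; rice transplanted at 2.5-leaf stage. Greenhouse 25–30 °C, 3 wk. Score 0–5 (5 = ≥90% kill, 0 = ≤5%).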

transplanted rice plant = test: Test Example 1: effect on crop, application before weed generation in submerged conditions (symbol a); conditions: application herbicide amount 320 g/ha
Summary of the method: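 Rice at 2.5 leaf stage transplanted into submerged soil (4 cm depth) sown with three weed species; herbicide applied before weed emergence.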

[1] = tested on: Echinochloa oryzacola Vasing.; test: Test Example 2: herbicidal activity, application during weed generation in submerged conditions (symbol A); conditions: Table 23; application herbicide amount 320 g/ha; grade 0-5 by criteria of Test Example 1
Summary of the method: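 Compound was applied as a water-diluted emulsion into the standing water of flooded pots (4 cm) once co-sown weeds reached one to two leaves. Greenhouse temperature was 25° C. to 30° C., soil was alluvial, and each species was rated visually after 3 weeks.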

[2] = tested on: Echinochloa crus-galli var. crus-galli; test: Test Example 3: herbicidal effect by foliage application, Wagner pot (symbol H); conditions: application herbicide amount 320 g/ha; for H (Echinochloa crus-galli var. crus-galli) herbicidal effect grade: Table 24
Summary of the method: (§1)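 In a shallow-flooded alluvial soil system held at 25–30 °C, plants including rice grew for 14 days and were then sprayed over the foliage with emulsion diluted to a fixed herbicide amount. Visual rating followed at 3 weeks.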

Leptochloa chinensis = test: Test Example 3: herbicidal effect by foliage application, Wagner pot (symbol D); conditions: application herbicide amount 320 g/ha; for D (Leptochloa chinensis) herbicidal effect grade: Table 24
Summary of the method: as §1

[3] = tested on: directly sowed rice plant; test: Test Example 3: effect on crop by foliage application, Wagner pot (symbol b); conditions: application herbicide amount 320 g/ha; for b (directly sowed rice plant) effect on crop grade: Table 24
Summary of the method: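 Steps: fill a 1/10000-are Wagner pot with alluvial soil; add water and mix to submerge at 0.1–0.5 cm depth; sow rice plus Echinochloa crus-galli var. crus-galli, Leptochloa chinensis and Cyperus difformis; grow in a 25–30 °C greenhouse.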

Digitaria ciliaris = test: Test Example 4: herbicidal effect by soil treatment (symbol F); conditions: for F: Digitaria ciliaris, herbicidal effect grade: 320 g/ha
Summary of the method: (§2)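 Seeds were sown in sterilized diluvial soil, covered with about 1.5 cm of soil, and the soil surface was sprayed with a water-diluted emulsion of the compound at a predetermined rate. Plants grew in a greenhouse at 25° C. to 30° C.; effects were scored visually 3 weeks after application.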

Lolium multiflorum Lam. = test: Test Example 4: herbicidal effect by soil treatment (symbol K); conditions: for K: Lolium multiflorum Lam., herbicidal effect grade: 320 g/ha
Summary of the method: as §2

Chenopodium album = test: Test Example 4: herbicidal effect by soil treatment (symbol O); conditions: for O: Chenopodium album, herbicidal effect grade: 320 g/ha
Summary of the method: as §2

beet = test: Test Example 4: effect on crop by soil treatment (symbol f); conditions: for f: beet, effect grade on crop: 320 g/ha
Summary of the method: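 Sterilized diluvial soil, spot sowing, ~1.5 cm soil cover; greenhouse 25–30° C.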

corn = test: Test Example 5: effect on crop by foliage application, plastic box (symbol c); conditions: 320 g/ha, 3 weeks after application
Summary of the method: (§3)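 Foliage-application test plants come from spot sowing in sterilized diluvial soil under a soil layer of about 1.5 cm, grown at 25° C. to 30° C. in a greenhouse.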

soybean = test: Test Example 5: effect on crop by foliage application, plastic box (symbol d); conditions: 320 g/ha, 3 weeks after application
Summary of the method: as §3

[4] = application herbicide amount 320 g/ha

Row | SMILES | Herbicidal effect grade, C: Monochoria vaginalis (Monochoria vaginalis) | Effect grade on crop, a: transplanted rice plant (transplanted rice plant) | Herbicidal effect grade, A: Echinochloa oryzacola Vasing. [1] | herbicidal effect on H (Echinochloa crus-galli var. crus-galli), grade 0-5 [2] | herbicidal effect on D (Leptochloa chinensis), grade 0-5 (Leptochloa chinensis) | effect on crop b (directly sowed rice plant), grade 0-5 [3] | F: Digitaria ciliaris, herbicidal effect grade (Digitaria ciliaris) | K: Lolium multiflorum Lam., herbicidal effect grade (Lolium multiflorum Lam.) | O: Chenopodium album, herbicidal effect grade (Chenopodium album) | f: beet, effect grade on crop (beet) | c: corn, effect on crop (criteria 0-5) (corn) | d: soybean, effect on crop (criteria 0-5) (soybean) | C (Monochoria vaginalis) herbicidal effect grade (Monochoria vaginalis) | a (transplanted rice plant) effect on crop grade (transplanted rice plant) | H (Echinochloa crus-galli var. crus-galli) herbicidal effect grade [2] | D (Leptochloa chinensis) herbicidal effect grade (Leptochloa chinensis) | b (directly sowed rice plant) effect on crop grade [3] | Herbicidal effect grade, F: Digitaria ciliaris (Digitaria ciliaris; [4]) | c: corn, effect on crop grade (corn) | d: soybean, effect on crop grade (soybean) | also measured
1 | CC(CC1CC(O)=C(c2c(C)cc(C)cc2C)C1=O)=NOCc1ccc(Cl)cc1 (stereo not drawn) [1-137] | 5 (Herbicidal ratio of 90% or more (almost completely withered)) | 5 (Herbicidal ratio of 90% or more (almost completely withered)) | 4 (Herbicidal ratio of 70% or higher and lower than 90%) | 5 (Herbicidal ratio of 90% or more (almost completely withered)) | 5 (Herbicidal ratio of 90% or more (almost completely withered)) | 5 (Herbicidal ratio of 90% or more (almost completely withered)) | 5 (Herbicidal ratio of 90% or more (almost completely withered)) | 5 (Herbicidal ratio of 90% or more (almost completely withered)) | 0 (Herbicidal ratio of 5% or lower (almost no effect)) | 0 (Herbicidal ratio of 5% or lower (almost no effect)) | 3 (Herbicidal ratio of 40% or higher and lower than 70%) | 0 (Herbicidal ratio of 5% or lower (almost no effect)) |  |  |  |  |  |  |  |  | 
2 | CC#Cc1cc(C)c(C2=C(O)CC(CC(=NOC)C3CC3)C2=O)c(C)c1 (stereo not drawn) [9-008] |  |  | 5 (Herbicidal ratio of 90% or more (almost completely withered)) |  |  |  |  |  |  |  |  |  | 4 (Herbicidal ratio of 70% or higher and lower than 90%) | 5 (Herbicidal ratio of 90% or more (almost completely withered)) | 5 (Herbicidal ratio of 90% or more (almost completely withered)) | 5 (Herbicidal ratio of 90% or more (almost completely withered)) | 5 (Herbicidal ratio of 90% or more (almost completely withered)) | 5 (Herbicidal ratio of 90% or more (almost completely withered)) | 5 (Herbicidal ratio of 90% or more (almost completely withered)) | 3 (Herbicidal ratio of 40% or higher and lower than 70%) | Herbicidal effect grade, K: Lolium multiflorum Lam. (Lolium multiflorum Lam.; [4]): 5 (Herbicidal ratio of 90% or more (almost completely withered)); Herbicidal effect grade, O: Chenopodium album (Chenopodium album; [4]): 0 (Herbicidal ratio of 5% or lower (almost no effect)); Effect on crop grade, f: beet (beet; [4]): 0 (Herbicidal ratio of 5% or lower (almost no effect))
3 | CON=C(C)CC1CC(OC(=O)c2cnoc2C2CC2)=C(c2c(C)cc(C)cc2C)C1=O (stereo not drawn) [1-103] | 1 (Herbicidal ratio of 5% or higher and lower than 20%) | 5 (Herbicidal ratio of 90% or more (almost completely withered)) | 5 (Herbicidal ratio of 90% or more (almost completely withered)) | 5 (Herbicidal ratio of 90% or more (almost completely withered)) | 5 (Herbicidal ratio of 90% or more (almost completely withered)) | 5 (Herbicidal ratio of 90% or more (almost completely withered)) | 5 (Herbicidal ratio of 90% or more (almost completely withered)) | 5 (Herbicidal ratio of 90% or more (almost completely withered)) | 0 (Herbicidal ratio of 5% or lower (almost no effect)) | 0 (Herbicidal ratio of 5% or lower (almost no effect)) | 5 (Herbicidal ratio of 90% or more (almost completely withered)) | 3 (Herbicidal ratio of 40% or higher and lower than 70%) |  |  |  |  |  |  |  |  | 
4 | CC(CC1CC(O)=C(c2c(C)cc(-c3ccc(Cl)cc3)cc2C)C1=O)=NOCC(F)(F)F (stereo not drawn) [9-024] |  |  | 3 (Herbicidal ratio of 40% or higher and lower than 70%) |  |  |  |  |  |  |  |  |  | 2 (Herbicidal ratio of 20% or higher and lower than 40%) | 5 (Herbicidal ratio of 90% or more (almost completely withered)) | 5 (Herbicidal ratio of 90% or more (almost completely withered)) | 5 (Herbicidal ratio of 90% or more (almost completely withered)) | 5 (Herbicidal ratio of 90% or more (almost completely withered)) | 5 (Herbicidal ratio of 90% or more (almost completely withered)) | 5 (Herbicidal ratio of 90% or more (almost completely withered)) | 0 (Herbicidal ratio of 5% or lower (almost no effect)) | Herbicidal effect grade, K: Lolium multiflorum Lam. (Lolium multiflorum Lam.; [4]): 5 (Herbicidal ratio of 90% or more (almost completely withered)); Herbicidal effect grade, O: Chenopodium album (Chenopodium album; [4]): 0 (Herbicidal ratio of 5% or lower (almost no effect)); Effect on crop grade, f: beet (beet; [4]): 0 (Herbicidal ratio of 5% or lower (almost no effect))
5 | CON=C(C)CC1CC(OC(=O)C(C)(C)C)=C(c2c(C)cc(C)cc2C)C1=O (stereo not drawn) [1-004, 2-mesityl-4-{2-(methoxyimino)propyl}-3-oxocyclopent-1-en-1-yl pivalate] | 4 (Herbicidal ratio of 70% or higher and lower than 90%) | 5 (Herbicidal ratio of 90% or more (almost completely withered)) | 5 (Herbicidal ratio of 90% or more (almost completely withered)) | 5 (Herbicidal ratio of 90% or more (almost completely withered)) | 5 (Herbicidal ratio of 90% or more (almost completely withered)) | 5 (Herbicidal ratio of 90% or more (almost completely withered)) |  |  |  |  |  |  |  |  |  |  |  |  | 5 (Herbicidal ratio of 90% or more (almost completely withered)) | 4 (Herbicidal ratio of 70% or higher and lower than 90%) | F (Digitaria ciliaris) herbicidal effect grade (Digitaria ciliaris; [4]): 5 (Herbicidal ratio of 90% or more (almost completely withered)); K (Lolium multiflorum Lam.) herbicidal effect grade (Lolium multiflorum Lam.; [4]): 5 (Herbicidal ratio of 90% or more (almost completely withered)); O (Chenopodium album) herbicidal effect grade (Chenopodium album; [4]): 0 (Herbicidal ratio of 5% or lower (almost no effect)); f (beet) effect on crop grade (beet; [4]): 4 (Herbicidal ratio of 70% or higher and lower than 90%)
6 | COC(=O)c1ccc(CON=C(C)CC2CC(O)=C(c3c(C)cc(C)cc3C)C2=O)cc1 (stereo not drawn) [1-118] | 2 (Herbicidal ratio of 20% or higher and lower than 40%) | 4 (Herbicidal ratio of 70% or higher and lower than 90%) | 2 (Herbicidal ratio of 20% or higher and lower than 40%) | 4 (Herbicidal ratio of 70% or higher and lower than 90%) | 0 (Herbicidal ratio of 5% or lower (almost no effect)) | 5 (Herbicidal ratio of 90% or more (almost completely withered)) | 3 (Herbicidal ratio of 40% or higher and lower than 70%) | 3 (Herbicidal ratio of 40% or higher and lower than 70%) | 0 (Herbicidal ratio of 5% or lower (almost no effect)) | 0 (Herbicidal ratio of 5% or lower (almost no effect)) | 4 (Herbicidal ratio of 70% or higher and lower than 90%) | 0 (Herbicidal ratio of 5% or lower (almost no effect)) |  |  |  |  |  |  |  |  | 
